Assay results as given in US20080312301A1, “Substituted N-Benzo[D]Isoxazol-3-Yl-Amine Compounds as Inhibitors of Mglur5, Serotonin (5-Ht) and Noradrenaline Receptors, and Uses Thereof” (Gruenenthal GmbH, priority 2005, published 2008).

Molecular target: T1, NA transporter (Rattus norvegicus, UniProt Q63380)
T1 construct: from tissue; host or cells: rat hypothalamus synaptosomes (P2 fraction)
Test: Noradrenaline (NA) uptake inhibition in rat brain synaptosomes (hypothalamus), [3H]-NA
Assay type: biochemical
Details: for inhibition at 10 µM: conc. 10 μM
Text: I. Method for Determining the Noradrenaline and 5HT Uptake Inhibition:
For in vitro studies, synaptosomes were freshly isolated from rat brain areas as described in the publication “The isolation of nerve endings from brain” by E. G. Gray and V. P. Whittaker, J. Anatomy 96, pages 79-88, 1962. The corresponding literature description is introduced hereby as reference and forms part of the disclosure.
The tissue (hypothalamus for determining the noradrenaline uptake inhibition and medulla and pons for determining the 5HT uptake inhibition) was homogenized in ice-cold 0.32 M sucrose (100 mg of tissue/1 ml) in a glass homogenizer with Teflon pestle using five full up and down strokes at 840 revolutions/minute. The homogenate was centrifuged at 1000 g and at 4° C. for 10 minutes. After subsequent centrifugation at 17 000 g for 55 minutes, the synaptosomes (P2 fraction) are obtained and were resuspended in 0.32 M […] (0.5 ml/100 mg of the original weight).
The respective uptake was measured in a 96-well microtiter plate. The volume was 250 μl and incubation took place at room temperature (approx. 20-25° C.) under an O2 atmosphere.
The incubation time was 7.5 minutes for [^3H]-NA and 5 minutes for [^3H]-5-HT. The 96 samples were then filtered through a Unifilter GF/B® microtiter plate (Packard) and washed with […] of incubated buffer using a “Brabdel MPXRI-96T Cell Harvester”. The Unifilter GF/B plate was dried at 55° C. for 1 h. The plate was then sealed with a Back Seal® (Packard) and 35 μl of scintillation fluid were added per well (Ultima Gold®, Packard). After sealing with a top Seal® (Packard), the radioactivity was determined, after equilibrium had been reached (about 5 h), in a “Trilux 1450 Microbeta” (Wallac).
The following characteristic data were found for the NA transporter:
The amount of protein employed in the above determination corresponded to the value disclosed in the literature, as described for example in “Protein measurement with the folin phenol reagent”, Lowry et al., J. Biol. Chem., 193, 265-275, 1951. A detailed description of the method can also be found in the literature, for example from M. Ch. Frink, H.-H. Hennies, W. Engelberger, M. Haurand and B. Wilffert (1996) Arzneim.-Forsch./Drug Res. 46 (III), 11, 1029-1036. The corresponding literature descriptions are hereby introduced as reference and form part of the disclosure.

T1 sequence (Q63380 1-617): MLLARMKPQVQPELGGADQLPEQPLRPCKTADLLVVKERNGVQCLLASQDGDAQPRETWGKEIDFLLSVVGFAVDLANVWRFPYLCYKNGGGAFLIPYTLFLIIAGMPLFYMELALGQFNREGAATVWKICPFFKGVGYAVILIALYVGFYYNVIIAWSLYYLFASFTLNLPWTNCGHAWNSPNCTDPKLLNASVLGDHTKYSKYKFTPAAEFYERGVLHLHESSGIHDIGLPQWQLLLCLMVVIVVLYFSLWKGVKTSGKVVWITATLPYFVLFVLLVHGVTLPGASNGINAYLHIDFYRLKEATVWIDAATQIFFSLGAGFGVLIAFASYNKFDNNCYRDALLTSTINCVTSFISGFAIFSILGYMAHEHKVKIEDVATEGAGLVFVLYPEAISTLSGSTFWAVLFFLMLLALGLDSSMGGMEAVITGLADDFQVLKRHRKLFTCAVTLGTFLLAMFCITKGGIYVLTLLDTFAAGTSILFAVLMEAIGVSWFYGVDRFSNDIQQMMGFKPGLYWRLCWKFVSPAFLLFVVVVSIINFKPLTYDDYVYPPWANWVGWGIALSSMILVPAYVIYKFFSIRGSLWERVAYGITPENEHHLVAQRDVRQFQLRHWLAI

Compound	inhibition at 10 µM [%]	NA uptake inhibition [%] conc. 10 μM [%]
O=C(Nc1noc2c(F)cccc12)c1ccc(I)cc1 [Example 55, N-(7-fluorobenzo[d]isoxazol-3-yl)-4-iodobenzamide]	69	–
O=C(Nc1noc2c(F)cccc12)c1ccc(C(F)(F)F)c(F)c1 [Example 53, 3-fluoro-N-(7-fluorobenzo[d]isoxazol-3-yl)-4-trifluoromethylbenzamide]	69	–
CCCc1ccc(C(=O)Nc2noc3cc(Br)ccc23)cc1 [Example 48, N-(6-bromobenzo[d]isoxazol-3-yl)-4-propylbenzamide]	61	–
O=C(Nc1noc2c(F)cccc12)c1cc(F)c(Cl)cc1Cl [Example 52, 2,4-dichloro-5-fluoro-N-(7-fluorobenzo[d]isoxazol-3-yl)benzamide]	70	–
O=C(Nc1noc2c(F)cccc12)c1cccnc1Cl [Example 56, 2-chloro-N-(7-fluorobenzo[d]isoxazol-3-yl)nicotinamide]	72	–
O=C(Nc1noc2ccc(Br)cc12)C1CC1 [Example 8, cyclopropane(5-bromobenzo[d]isoxazol-3-yl)carboxamide]	–	62
O=C(Nc1noc2c(F)cccc12)C(c1ccccc1)c1ccccc1 [Example 62, N-(7-fluorobenzo[d]isoxazol-3-yl)-2,2-diphenylacetamide]	63	–
Nc1cccc2onc(NC(=O)c3cccc4ccccc34)c12 [Example 11, naphthalene-1-(4-aminobenzo[d]isoxazol-3-yl)carboxamide]	–	71
CN(C)c1cccc2onc(NC(=O)C(F)(F)C(F)(F)C(F)(F)F)c12 [Example 76, N-(4-dimethylaminobenzo[d]isoxazol-3-yl)-2,2,3,3,4,4,4-heptafluorobutyramide]	67	–
Nc1cccc2onc(NC(=O)c3ccc([N+](=O)[O-])cc3)c12 [Example 10, N-(4-aminobenzo[d]isoxazol-3-yl)-4-nitrobenzamide]	66	–
CCCc1ccc(C(=O)Nc2noc3cccc(N(C)C)c23)cc1 [Example 68, N-(4-dimethylaminobenzo[d]isoxazol-3-yl)-4-propylbenzamide]	73	–
O=C(Nc1noc2c(F)cccc12)c1ccc2ccccc2c1 [Example 57, naphthalene-2-(7-fluorobenzo[d]isoxazol-3-yl)carboxamide]	–	67
O=C(Nc1noc2cc(Cl)ccc12)c1ccc(F)c(F)c1 [Example 42, N-(6-chlorobenzo[d]isoxazol-3-yl)-3,4-difluorobenzamide]	64	–
CN(C)c1cccc2onc(NC(=O)c3ccc4ccccc4c3)c12 [Example 67, naphthalene-2-(4-dimethylaminobenzo[d]isoxazol-3-yl)carboxamide]	–	73
O=C(Nc1noc2cccc(OCC(F)(F)F)c12)c1ccc(F)c(F)c1F [Example 80, 2,3,4-trifluoro-N-[4-(2,2,2-trifluoroethoxy)benzo[d]isoxazol-3-yl]benzamide]	66	–
O=C(Nc1noc2cccc(F)c12)c1cc2ccccc2s1 [Example 12, benzo[b]thiophene-2-(4-fluorobenzo[d]isoxazol-3-yl)carboxamide]	–	60
O=C(Nc1noc2c(F)cccc12)c1ccco1 [Example 63, furan-2-(7-fluorobenzo[d]isoxazol-3-yl)carboxamide]	–	64
O=C(Nc1noc2cc(Br)ccc12)c1ccc(F)cc1C(F)(F)F [Example 43, N-(6-bromobenzo[d]isoxazol-3-yl)-4-fluoro-2-trifluoromethylbenzamide]	66	–
COc1cccc(C(=O)Nc2noc3cccc(N(C)C)c23)c1 [Example 71, N-(4-dimethylaminobenzo[d]isoxazol-3-yl)-3-methoxybenzamide]	65	–
O=C(Nc1noc2cc(Br)ccc12)c1cc(F)c(Cl)cc1Cl [Example 44, 2,4-dichloro-N-(6-bromobenzo[d]isoxazol-3-yl)-5-fluorobenzamide]	61	–
CN(C)c1cccc2onc(NC(=O)c3cc(F)c(Cl)cc3Cl)c12 [Example 64, 2,4-dichloro-N-(4-dimethylaminobenzo[d]isoxazol-3-yl)-5-fluorobenzamide]	63	–
COc1cccc2onc(NC(=O)C(c3ccccc3)c3ccccc3)c12 [Example 7, N-(4-methoxybenzo[d]isoxazol-3-yl)-2,2-diphenylacetamide]	63	–
O=C(Nc1noc2c(F)cccc12)c1cccc(C(F)(F)F)c1F [Example 60, 2-fluoro-N-(7-fluorobenzo[d]isoxazol-3-yl)-3-trifluoromethylbenzamide]	66	–
O=C(Nc1noc2c(F)cccc12)c1ccc(F)c(F)c1F [Example 54, 2,3,4-trifluoro-N-(7-fluorobenzo[d]isoxazol-3-yl)benzamide]	63	–
O=C(Nc1noc2cc(Br)ccc12)c1ccc(F)c(F)c1F [Example 47, N-(6-bromobenzo[d]isoxazol-3-yl)-2,3,4-trifluorobenzamide]	66	–

Next, values leading:

inhibition at 10 µM [%]	NA uptake inhibition [%] conc. 10 μM [%]	Compound
62	–	O=C(Nc1noc2cccc(OCC(F)(F)F)c12)c1ccc(C(F)(F)F)c(F)c1 [Example 79, 3-fluoro-N-[4-(2,2,2-trifluoroethoxy)benzo[d]isoxazol-3-yl]-4-trifluoromethyl-benzamide]
71	–	O=C(Nc1noc2c(F)ccc(F)c12)c1ccccc1C(F)(F)F [Example 51, 7-fluoro-N-(4-fluorobenzo[d]isoxazol-3-yl)-2-trifluoromethylbenzamide]
70	–	CN(C)c1cccc2onc(NC(=O)C(c3ccccc3)c3ccccc3)c12 [Example 74, N-(4-dimethylaminobenzo[d]isoxazol-3-yl)-2,2-diphenylacetamide]
–	66	O=C(Nc1noc2ccc(Br)cc12)c1ccco1 [Example 50, furan-2-(5-bromobenzo[d]isoxazol-3-yl)carboxamide]
–	64	furan-2-(4-dimethylaminobenzo[d]isoxazol-3-yl)carboxamide [Example 75]
64	–	CN(C)c1cccc2onc(NC(=O)c3cccnc3Cl)c12 [Example 66, 2-chloro-N-(4-dimethylaminobenzo[d]isoxazol-3-yl)nicotinamide]
66	–	COc1cccc(C(=O)Nc2noc3c(F)cccc23)c1 [Example 61, N-(7-fluorobenzo[d]isoxazol-3-yl)-3-methoxybenzamide]
–	61	O=C(Nc1noc2cc(Cl)ccc12)c1ccc2ccccc2c1 [Example 41, naphthalene-2-(6-chlorobenzo[d]isoxazol-3-yl)carboxamide]
66	–	O=C(Nc1noc2cccc(OCC(F)(F)F)c12)c1cc(F)c(Cl)cc1Cl [Example 78, 2,4-dichloro-5-fluoro-N-[4-(2,2,2-trifluoroethoxy)benzo[d]isoxazol-3-yl]benzamide]
64	–	O=C(Nc1noc2cc(Br)ccc12)c1ccc(C(F)(F)F)c(F)c1 [Example 45, N-(6-bromobenzo[d]isoxazol-3-yl)-3-fluoro-4-trifluoromethylbenzamide]
–	64	CCCc1ccc(C(=O)Nc2noc3cccc(F)c23)cc1 [Example 58, N-(74-fluorobenzo[d]isoxazol-3-yl)-4-propylbenzamide]
